Assay results published in PMC6715294 (Molecular cancer therapeutics, 2018).

How the values were obtained:
AKT1 = AKT1 (Homo sapiens, UniProt P31749); assay: ADP-Glo kinase assay with active AKT1; format: biochemical
AKT2 = AKT2 (Homo sapiens, UniProt P31751); assay: ADP-Glo kinase assay with active AKT2; format: biochemical
Chain of AKT2 (P31751 whole entry): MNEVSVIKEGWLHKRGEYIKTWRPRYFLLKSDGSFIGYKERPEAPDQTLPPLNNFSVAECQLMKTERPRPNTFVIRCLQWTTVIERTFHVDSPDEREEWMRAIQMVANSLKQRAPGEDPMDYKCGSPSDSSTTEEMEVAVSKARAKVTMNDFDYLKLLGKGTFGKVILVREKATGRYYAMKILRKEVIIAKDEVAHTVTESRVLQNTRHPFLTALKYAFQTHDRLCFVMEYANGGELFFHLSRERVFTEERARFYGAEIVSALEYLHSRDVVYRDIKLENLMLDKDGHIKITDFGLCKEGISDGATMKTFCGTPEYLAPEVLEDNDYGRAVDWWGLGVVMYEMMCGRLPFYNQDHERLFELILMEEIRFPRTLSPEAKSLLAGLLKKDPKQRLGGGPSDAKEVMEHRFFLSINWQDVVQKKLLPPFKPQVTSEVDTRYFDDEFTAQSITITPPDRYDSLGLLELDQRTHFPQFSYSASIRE

Chain of AKT1 (P31749 whole entry): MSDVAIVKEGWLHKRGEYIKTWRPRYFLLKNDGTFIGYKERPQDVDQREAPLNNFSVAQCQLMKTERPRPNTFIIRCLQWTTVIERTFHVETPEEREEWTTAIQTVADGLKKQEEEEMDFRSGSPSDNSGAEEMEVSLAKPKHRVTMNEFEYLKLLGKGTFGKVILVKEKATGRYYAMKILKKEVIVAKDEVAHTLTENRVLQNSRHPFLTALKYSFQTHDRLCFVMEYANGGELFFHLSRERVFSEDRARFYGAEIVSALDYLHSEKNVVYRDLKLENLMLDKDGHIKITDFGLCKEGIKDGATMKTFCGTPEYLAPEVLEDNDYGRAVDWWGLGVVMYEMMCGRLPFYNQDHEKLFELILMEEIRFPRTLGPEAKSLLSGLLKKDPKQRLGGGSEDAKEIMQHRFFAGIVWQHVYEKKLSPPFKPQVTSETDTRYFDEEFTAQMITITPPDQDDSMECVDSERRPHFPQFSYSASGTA

IC50 (AKT1): 8.4 ± 1.34 µM | IC50 (AKT2): 8.9 ± 0.92 µM
Structure (SMILES): C=C1C(=O)[C@]23[C@H](O)[C@H]1CC[C@H]2[C@@]12CO[C@]3(O)[C@@H](O)[C@@H]1C(C)(C)CC[C@@H]2O [oridonin]
